Results taken from patent publication US12691124B2, “Methods of controlling and improving brain health” (ICAHN SCHOOL OF MEDICINE AT MOUNT SINAI, priority 2019, dated 2026).

Legend:
Assay type in all cases: cell-based, mouse
[1] = tested on: primary microglia exposed to lipopolysaccharide (LPS); test: LPS-induced gene expression in primary microglia pretreated with IBET858
Method: Primary Microglia Culture. Postnatal day 0 C57/Bl6 mice were decapitated in ice cold HBSS. The forebrain was rapidly dissected and treated as above in order to generate a single cell suspension. 60,000 cells per cm2 were seeded in vented, Poly-D-lysine coated flasks. Mixed glial cultures were maintained in DMEM containing 10% FBS and 1% penicillin/streptomycin for 3 weeks. After three weeks, microglia were isolated by shaking the mixed glial cultures for 4 hours at 360 rpm and re-plated at density on 100,0000 cells/cm2. Cultures were given 24 hours to settle before treatment. Cultures were pre-treated for 30 minutes with either DMSO (0.01%) or 1 uM IBET858. After 30 minutes, LPS (100 ng/ml) was added to the cultures. RNA was isolated with Trizol LS according to the manufacturer's recommendations after 1, 4 and 12 hours of LPS treatment.
To understand if BET proteins regulate the dynamic induction of pro-inflammatory gene networks, primary microglia were exposed to the bacterial cell wall component lipopolysaccharide, LPS. T, which is recognized by Tlr4, triggers a signal cascade that leads to an extensive increase in cytokine and chemokine production which causes significant damage to host tissues if left unrestrained. Nicodeme et al., “Suppression of Inflammation by a Synthetic Histone Mimic,” Nature 468:1119-1123 (2010), which is hereby incorporated by reference in its entirety. As before, microglial identity genes Tyrobp, Hexb and Trem2 were unaffected by IBET858 (FIG. 4B). As expected, LPS causes a time-dependent increase in pro-inflammatory gene expression in microglia (FIGS. 4C-4E). […] BET inhibition specifically decreases the expression of inflammatory genes (Il6, Cd33, and Nlrp3), interferon response pathway (Ifnb, Irf2/9, Mx1) and cell death mediators (Bid, Casp1/4/7/12, Traf1). […] Nicodeme et al., “Suppression of Inflammation by a Synthetic Histone Mimic,” Nature 468:1119-1123 (2010), which is hereby incorporated by reference in its entirety.

[2] = tested on: primary cortical neurons; test: Hypoxia (1% O2) induced neuronal death; conditions: 1% O2, 1 week pretreatment
Source text: While glutamate toxicity is a widely used and clinically relevant assay, there are other factors that contribute to neuronal death in vivo such as lack of oxygen which occurs after stroke or protein aggregates which are observed in many neurodegenerative disorders. To understand if the observed protective effect is specific to glutamate toxicity, neurons were exposed to either hypoxic (1% O2) environments or Aβ1-43 oligomers (FIGS. 10E and 10F).
IBET treatment protects neurons from neurotoxin-induced cell death (FIGS. 22C-22E). Dot plots show the percentage of cells that are propidium iodide negative after different neurotoxic insults when pre-treated with either control or iBET for 1 week. 6 hours and 24 hours after 1 mM glutamate exposure are shown in FIG. 22C; 18 hours, 24 hours, and 48 hours of hypoxia (1% O2) are shown in FIG. 22D; and 48 hours and 72 hours of Aβ1-43 oligomer exposure (10 μM) are shown in FIG. 22E. Two-way repeated measures ANOVA with multiple comparisons, n=3 per group, ***p<0.001. Experiments were repeated a minimum of three times.

[3] = tested on: primary cortical neurons; test: Gene expression in primary cortical neurons
Source text: Primary Cortical Neuron Culture. Embryonic day 18 (E18) timed-pregnant female mice were anesthetized with CO2 and sacrificed by cervical dislocation. In a dissection hood, 24-26 embryos per experiment were collected through an incision of the mother's abdomen, taken out of the amniotic sacs and decapitated in ice cold Hank's Balanced Salt Solution (HBSS). Using fine scissors and forceps, brains were rapidly dissected and the cortex cleared from meninges and isolated under a dissection microscope. Cortices were collected in ice cold HBSS and kept on ice until all embryos had been dissected. In a tissue culture hood, HBSS was removed and the cortex tissue digested by 0.25% Trypsin-EDTA for 12 minutes at 37° C., followed by DNase1 treatment for 10 minutes at 37° C. The tissue was dissociated by serial trituration with a 25 ml serological pipette, followed by trituration with 10 ml and 5 ml serological pipettes. Cell suspension was washed once with DMEM medium, supplemented with 10% FBS and 1% penicillin/streptomycin and passed through a […] cell strainer before counted on a hemocytometer. Single cells were seeded on poly-D-lysine (0.1 mg ml-1) coated wells at a density of 1×10^6 cells per well on a 12-well plate. Cells were grown in Neurobasal medium, complemented with B27 supplement, N2 supplement, and 0.5 mM L-glutamine and maintained at 37° C. in 5% CO2 for 1 week. […] Cultures were washed with phosphate-buffered saline (PBS) on ice and processed for RNA isolation using TRIzol/Chloroform extraction.
RNA Isolation. For in vitro gene expression analysis, neuronal culture plates were washed once with PBS, and TRIzol was added directly to cultures to isolate RNA (n=3 per group). For in vivo gene expression analysis, mice were anesthetized with CO2 and decapitated. The striata from two control and acute or chronic I-BET treated mice were rapidly dissected on ice and frozen in liquid nitrogen. RNA extraction from frozen samples was performed using TRIzol/Chloroform according to manufacturer's instructions (Invitrogen Corporation, Carlsbad, CA). RNA was precipitated overnight at −80° C. in isopropanol with 0.15 M sodium acetate, washed twice with 70% ethanol, air-dried, and resuspended in RNase-free water. RNA samples were purified using Rneasy Micro columns (Qiagen) with on-column DNAse treatment as specified by manufacturer. […]
RNA Sequencing. […] Duplexed libraries were sequenced on HiSeq 2000, typically yielding on average 60 million, 100 bp long single-end reads per sample (Illumina). […] After filtering out adaptor and low quality reads, reads were mapped using TopHat (version 2.0.8) to the mm9 mouse genome. […] Differentially expressed autosomal genes between control and acute I-BET858 or chronic I-BET858 libraries were determined using a p-value <0.05 and fold change of >2. […]

Q: How did the “chemotaxis, cell proliferation and NFkB pathway genes after LPS” value ([1]; 1 μM) turn out when CC(=O)N1c2ccc(-c3ccc(CN4CCCCC4)cc3)cc2[C@H](Nc2ccccc2)CC1C (stereo in doubt) [IBET858] was run?
A: insensitive

Q: And the “microglial identity genes Tyrobp, Hexb and Trem2 after LPS” value ([1]; 1 μM)?
A: unaffected

Q: And the LPS gene induction ([1]; 1 μM pretreatment 30 min, LPS 1 h)?
A: little effect

Q: And the “LPS induced genes inhibited / LPS induced genes” value ([1]; LPS 4 hours)?
A: 514/960

Q: And the “LPS induced genes inhibited / LPS induced genes” value ([1]; LPS 12 hours)?
A: 484/747

Q: And the “loss of neurons due to hypoxia” value [2]?
A: significantly prevents loss of neurons

Q: And the “cellular composition of the culture and cell identity gene expression” value ([3]; 1 week IBET858)?
A: does not change

Q: And the “autophagy, proteolysis and pro-survival genes” value ([3]; chronic BET inhibition)?
A: up-regulation

Q: And the “metabolic genes (amino acid synthesis and import, glycolysis/TCA cycle, oxidative phosphorylation, fatty acid metabolism)” value ([3]; chronic BET inhibition, day 14)?
A: down-regulated

Q: And the “genes decreased by rapamycin that were also decreased by IBET858” value ([3]; one week treatment, 93/165)?
A: 56%
